# Results published in patent publication US12466813B2, “PRC1 inhibitors and methods of treatment therewith” (The Regents of the University of Michigan, priority 2018, dated 2025).
# “Also recorded” adds a separate entry of the source.
# Assays:
# [1] = biological target: T1, RING1B-BMI1 (Homo sapiens, UniProt Q99496); assay: KD classes of Table A (direct binding to Ring1B-Bmi1); details: class given in Table A
# T1 sequence (Q99496 1-336): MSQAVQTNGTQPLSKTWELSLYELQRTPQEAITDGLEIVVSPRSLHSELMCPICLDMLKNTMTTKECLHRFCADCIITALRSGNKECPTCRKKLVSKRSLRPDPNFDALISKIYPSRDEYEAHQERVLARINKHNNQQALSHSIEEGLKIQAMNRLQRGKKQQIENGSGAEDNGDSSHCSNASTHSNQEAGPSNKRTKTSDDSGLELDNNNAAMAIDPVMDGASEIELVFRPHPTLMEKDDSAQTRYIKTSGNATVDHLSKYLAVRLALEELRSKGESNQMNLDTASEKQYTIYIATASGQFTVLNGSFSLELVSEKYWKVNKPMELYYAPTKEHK
# T1 sequence (P35226 1-326 partner): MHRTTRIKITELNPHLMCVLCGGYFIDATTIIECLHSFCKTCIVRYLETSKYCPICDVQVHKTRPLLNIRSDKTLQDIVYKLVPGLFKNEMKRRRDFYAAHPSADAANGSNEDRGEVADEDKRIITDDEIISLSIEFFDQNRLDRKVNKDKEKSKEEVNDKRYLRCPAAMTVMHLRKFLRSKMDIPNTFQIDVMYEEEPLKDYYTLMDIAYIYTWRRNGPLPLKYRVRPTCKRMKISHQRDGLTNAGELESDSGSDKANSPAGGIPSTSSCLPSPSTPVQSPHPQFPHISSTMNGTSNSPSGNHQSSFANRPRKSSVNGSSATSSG
# [2] = test system: TEX cells; assay: Differentiation and CD34 marker of TEX cells; type: cell-based; details: FIG. 4
# Experimental: (§1) FIGS. 4A-F. COMPOUND 1 inhibits PRC1 in TEX cells. FIG. 4A. Inhibition of H2Aub in TEX cells. FIG. 4B. Differentiation of TEX cells upon treatment with COMPOUND 1. […] FIG. 4C. GSEA analysis of TEX cells showing revers of stem cell signature. FIG. 4D. […] FIG. 4E. Gene expression changes upon treatment with COMPOUND 1. FIG. 4F.
# (§2) Experiments were conducted during development of embodiments herein to develop small molecule inhibitors of PRC1 by targeting the Ring1B-BMI1 E3 ligase. These compounds bind directly to Ring1B-Bmi1 with low-micromolar affinity and inhibit PRC1 in vitro and in cells. […] Experiments were conducted during development of embodiments herein to test COMPOUND 1 in leukemia stem cell models represented by TEX cells (Ref. 22; herein incorporated by reference in its entirety) and M9-ENL1 cells (Ref. 23; herein incorporated by reference in its entirety). […] In some embodiments, COMPOUND 1 and COMPOUND 1 analogs are find use as agents in targeting leukemia and other cancer stem cells.
# [3] = biological target: T2, RING1B-PCGF1 (Homo sapiens, UniProt Q99496); assay: RING1B-PCGF1 E3 ligase activity in vitro; type: biochemical; details: FIG. 2B
# T2 sequence (Q99496 1-336): T1 sequence (Q99496 1-336)
# T2 sequence (Q9BSM1 1-259 partner): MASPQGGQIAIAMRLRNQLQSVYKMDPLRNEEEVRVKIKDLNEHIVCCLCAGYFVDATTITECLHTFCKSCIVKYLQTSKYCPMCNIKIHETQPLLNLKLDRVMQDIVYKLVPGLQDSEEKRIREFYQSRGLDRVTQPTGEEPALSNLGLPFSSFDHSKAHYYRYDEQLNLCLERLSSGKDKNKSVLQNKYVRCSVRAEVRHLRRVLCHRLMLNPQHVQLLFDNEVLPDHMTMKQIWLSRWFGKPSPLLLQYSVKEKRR
# Excerpt: (§3) FIG. 2. COMPOUND 1 inhibits PRC1 in vitro. […] C.
# [4] = test system: M9-ENL1 cells; assay: Colony formation of M9-ENL1 cells; type: cell-based; details: FIG. 5
# Experimental: as §2
# [5] = biological target: T1, RING1B-BMI1; assay: RING1B-BMI1 E3 ligase (H2Aub) activity in vitro; type: biochemical
# Experimental: as §3, §2
# [6] = biological target: T1, RING1B-BMI1; assay: ITC binding of COMPOUND 1 to RING1B-BMI1
# Experimental: FIG. 1. […] A. structure of COMPOUND 1. B. ITC experiments showing the binding of COMPOUND 1 to RING1B-BMI1. C. Assigned NMR spectrum of RING1B-BMI1 with DMSO and COMPOUND 1 in 1-2 molar ratio.
# as §2
# [7] = test system: H2Aub in TEX cells; assay: H2Aub, RNA-seq and ChIP-seq in TEX cells; type: cell-based; details: FIG. 4
# Experimental: as §1, §2
# [8] = biological target: BRCA1-BARD1 (Homo sapiens, UniProt P38398+Q99728); assay: BRCA1-BARD1 E3 ligase selectivity; type: biochemical; details: FIG. 2
# Experimental: as §3, §2
# [9] = test system: M9-ENL1 cells; assay: Transplantation of treated M9-ENL1 cells into mice; type: in vivo; details: then transplanted into mice, FIG. 5
# Experimental: as §2
# [10] = biological target: T3, RING1B-BMI1 interaction with nucleosome (Homo sapiens, UniProt Q99496); assay: EMSA assay, RING1B-BMI1 interaction with nucleosome; type: binding; details: FIG. 2D
# T3 sequence (Q99496 1-336): T1 sequence (Q99496 1-336)
# T3 sequence (P35226 1-326 partner): T1 sequence (P35226 1-326 partner)
# Excerpt: as §3
# [11] = biological target: T4, TRIM37 (Homo sapiens, UniProt O94972); assay: TRIM37 E3 ligase selectivity; type: biochemical; details: FIG. 2
# T4 sequence (O94972 1-964): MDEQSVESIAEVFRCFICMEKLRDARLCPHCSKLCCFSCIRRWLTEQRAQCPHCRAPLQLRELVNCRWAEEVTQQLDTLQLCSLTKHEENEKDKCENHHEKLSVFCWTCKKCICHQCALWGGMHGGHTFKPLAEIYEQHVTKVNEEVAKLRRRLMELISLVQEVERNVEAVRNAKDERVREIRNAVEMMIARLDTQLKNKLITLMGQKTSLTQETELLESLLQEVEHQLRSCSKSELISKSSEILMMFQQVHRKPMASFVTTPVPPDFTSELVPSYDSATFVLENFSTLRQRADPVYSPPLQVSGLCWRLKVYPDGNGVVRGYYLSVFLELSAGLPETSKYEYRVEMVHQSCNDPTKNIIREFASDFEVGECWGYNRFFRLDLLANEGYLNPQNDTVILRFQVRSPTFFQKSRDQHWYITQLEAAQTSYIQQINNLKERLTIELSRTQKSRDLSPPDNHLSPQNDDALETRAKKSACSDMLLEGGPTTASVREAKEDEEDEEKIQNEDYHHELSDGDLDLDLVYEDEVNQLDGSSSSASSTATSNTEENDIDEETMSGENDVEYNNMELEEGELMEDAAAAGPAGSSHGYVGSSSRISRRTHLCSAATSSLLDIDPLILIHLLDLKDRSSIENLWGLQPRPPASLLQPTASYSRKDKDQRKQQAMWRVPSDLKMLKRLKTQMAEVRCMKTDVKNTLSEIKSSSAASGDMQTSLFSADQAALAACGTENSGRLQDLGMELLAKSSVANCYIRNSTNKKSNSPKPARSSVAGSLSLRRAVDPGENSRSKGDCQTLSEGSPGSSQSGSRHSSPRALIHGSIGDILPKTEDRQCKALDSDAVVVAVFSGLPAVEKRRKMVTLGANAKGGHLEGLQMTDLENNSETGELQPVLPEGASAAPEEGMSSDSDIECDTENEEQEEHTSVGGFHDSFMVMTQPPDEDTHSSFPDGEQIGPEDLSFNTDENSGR
# Experimental: as §3, §2
# [12] = test system: PRC1 complex in leukemia K562 cells; assay: H2Aub level / PRC1 activity in K562 cells; type: cell-based; details: FIG. 3
# Experimental: FIG. 3. COMPOUND 1 inhibits PRC1 in K562 cells. Knockdown of BMI1 and RING1B in K562 cells results in decrease in H2Aub.
# as §2
# [13] = test system: primary AML samples; assay: Primary AML samples: H2Aub, colony formation, CD34; type: cell-based; details: FIG. 6
# Chain of BRCA1-BARD1 (P38398 whole entry): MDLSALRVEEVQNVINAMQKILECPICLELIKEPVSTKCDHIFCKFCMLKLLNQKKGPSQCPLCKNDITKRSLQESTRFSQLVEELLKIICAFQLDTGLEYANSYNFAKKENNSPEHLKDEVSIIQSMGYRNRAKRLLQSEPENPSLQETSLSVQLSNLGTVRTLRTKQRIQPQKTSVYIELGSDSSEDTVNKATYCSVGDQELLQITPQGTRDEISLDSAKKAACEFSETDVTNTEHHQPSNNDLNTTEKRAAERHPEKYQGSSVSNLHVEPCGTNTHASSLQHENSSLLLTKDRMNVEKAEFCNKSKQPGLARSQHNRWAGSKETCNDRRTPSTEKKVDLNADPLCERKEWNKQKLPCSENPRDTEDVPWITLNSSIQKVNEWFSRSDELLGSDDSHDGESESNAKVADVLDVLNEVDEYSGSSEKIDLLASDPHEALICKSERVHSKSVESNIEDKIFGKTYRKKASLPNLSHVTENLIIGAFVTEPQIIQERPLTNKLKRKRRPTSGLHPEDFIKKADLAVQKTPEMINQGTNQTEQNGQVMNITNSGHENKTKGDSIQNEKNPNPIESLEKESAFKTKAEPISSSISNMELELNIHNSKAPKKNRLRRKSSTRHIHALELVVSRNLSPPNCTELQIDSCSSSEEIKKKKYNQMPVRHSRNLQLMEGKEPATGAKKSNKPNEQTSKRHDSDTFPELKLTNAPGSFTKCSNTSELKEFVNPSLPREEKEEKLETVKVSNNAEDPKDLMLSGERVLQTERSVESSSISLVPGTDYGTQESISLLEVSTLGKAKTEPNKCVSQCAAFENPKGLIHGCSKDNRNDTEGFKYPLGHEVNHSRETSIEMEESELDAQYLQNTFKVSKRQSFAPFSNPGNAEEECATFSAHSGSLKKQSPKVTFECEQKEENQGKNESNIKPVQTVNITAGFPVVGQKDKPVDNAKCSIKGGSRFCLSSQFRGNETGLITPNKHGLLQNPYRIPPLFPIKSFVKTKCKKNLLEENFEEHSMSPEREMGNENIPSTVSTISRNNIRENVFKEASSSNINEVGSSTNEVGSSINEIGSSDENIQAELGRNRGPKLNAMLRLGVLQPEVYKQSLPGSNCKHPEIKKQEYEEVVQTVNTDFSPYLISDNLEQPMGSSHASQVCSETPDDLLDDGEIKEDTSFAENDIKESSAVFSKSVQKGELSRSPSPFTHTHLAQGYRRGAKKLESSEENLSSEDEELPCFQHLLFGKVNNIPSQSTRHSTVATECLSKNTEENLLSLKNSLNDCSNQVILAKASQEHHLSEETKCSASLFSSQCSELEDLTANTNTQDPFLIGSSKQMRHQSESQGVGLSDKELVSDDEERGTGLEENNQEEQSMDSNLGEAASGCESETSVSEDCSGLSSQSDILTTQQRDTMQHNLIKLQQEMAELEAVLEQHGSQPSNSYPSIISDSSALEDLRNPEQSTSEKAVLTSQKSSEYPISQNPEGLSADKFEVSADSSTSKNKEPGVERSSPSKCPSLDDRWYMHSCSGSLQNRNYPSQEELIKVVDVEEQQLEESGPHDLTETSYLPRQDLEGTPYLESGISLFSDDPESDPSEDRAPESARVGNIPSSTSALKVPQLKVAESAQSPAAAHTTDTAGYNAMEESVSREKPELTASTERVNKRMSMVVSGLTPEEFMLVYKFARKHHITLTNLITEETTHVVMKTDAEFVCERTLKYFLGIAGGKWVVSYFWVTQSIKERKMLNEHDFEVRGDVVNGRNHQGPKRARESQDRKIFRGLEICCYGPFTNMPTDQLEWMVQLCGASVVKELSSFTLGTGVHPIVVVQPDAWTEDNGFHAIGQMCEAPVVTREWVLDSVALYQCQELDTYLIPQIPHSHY
# Chain of BRCA1-BARD1 (Q99728 whole entry): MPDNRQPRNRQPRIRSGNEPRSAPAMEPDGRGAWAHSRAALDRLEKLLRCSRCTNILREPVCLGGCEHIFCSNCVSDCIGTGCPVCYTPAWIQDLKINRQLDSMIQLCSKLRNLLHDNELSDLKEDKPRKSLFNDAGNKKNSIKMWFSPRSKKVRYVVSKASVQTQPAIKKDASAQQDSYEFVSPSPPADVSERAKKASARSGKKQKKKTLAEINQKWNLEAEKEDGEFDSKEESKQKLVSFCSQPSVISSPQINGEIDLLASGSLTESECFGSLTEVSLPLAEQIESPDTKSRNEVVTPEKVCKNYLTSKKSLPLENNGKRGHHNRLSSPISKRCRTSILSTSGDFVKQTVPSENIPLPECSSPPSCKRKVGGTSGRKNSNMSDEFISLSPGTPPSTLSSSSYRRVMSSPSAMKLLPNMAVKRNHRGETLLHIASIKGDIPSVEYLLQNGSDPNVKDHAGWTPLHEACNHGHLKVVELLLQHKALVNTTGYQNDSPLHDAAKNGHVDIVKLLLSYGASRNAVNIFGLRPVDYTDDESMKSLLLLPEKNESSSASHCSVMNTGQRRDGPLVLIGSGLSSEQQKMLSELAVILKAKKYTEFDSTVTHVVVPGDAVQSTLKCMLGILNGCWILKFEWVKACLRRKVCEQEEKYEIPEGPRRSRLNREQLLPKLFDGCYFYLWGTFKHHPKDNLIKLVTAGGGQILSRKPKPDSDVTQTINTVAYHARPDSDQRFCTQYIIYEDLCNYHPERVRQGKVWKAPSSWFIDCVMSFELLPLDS
smiles,measurement,setting,value
CCc1c(-c2cccc3c2ccn3CCO)[nH]c(C(=O)O)c1-c1ccc(OC)cc1Cl [COMPOUND 103],Kd,[1],> 100 µM
same,differentiation of TEX cells,[2],does not induce differentiation
"CC(C)c1c(-c2cccc3[nH]ccc23)[nH]c(C(=O)O)c1-c1c(Cl)ccc2[nH]ccc12 [COMPOUND 1, 3-(5-Chloro-1H-indol-4-yl)-5-(1H-indol-4-yl)-4-isopropyl-1H-pyrrole-2-carboxylic acid]",RING1B-PCGF1 activity,[3],inhibits RING1B-PCGF1 activity
same,colony formation of M9-ENL1 cells,[4],effective in blocking colony formation
same,Kd,[1],< 20 µM
same,IC50,[5]; FIG. 2,~2 µM
same,RING1B-BMI1 H2Aub activity,"[5]; in vitro, FIG. 2A",inhibits RING1B-BMI1 H2Aub activity
same,differentiation of TEX cells,[2],induces differentiation
same,stem cell marker CD34,[2],loss of stem cell marker CD34
same,binding to RING1B-BMI1,"[6]; ITC and NMR, FIG. 1",binds to RING1B-BMI1
same,Kd,"[6]; binds directly to Ring1B-Bmi1, FIG. 1",2.6 µM
same,H2Aub in TEX cells,[7],inhibits H2Aub
same,global H2Aub (ChIP-seq),[7],global decrease in H2Aub
same,leukemia stem cell signature (RNA-seq),[7],reversing leukemia stem cell signature
same,inhibition of BRCA1-BARD1 E3 ligase,[8],does not inhibit
same,engraftment and leukemia development,[9],strongly decreases engraftment and leukemia development
same,RING1B-BMI1 interaction with nucleosome,[10],inhibits RINIG1B-BMI1 interaction with nucleosome
same,inhibition of TRIM37 E3 ligase,[11],does not inhibit
same,PRC1 activity / H2Aub level in K562 cells,[12],blocks the activity of PRC1 complex; also recorded: decreases H2Aub level
same,H2Aub in primary AML samples,[13],decreases H2Aub
same,"colony formation, primary AML samples",[13],inhibits colony formation
same,"stem cell marker CD34, primary AML samples",[13],decrease stem sell marker CD34
Cc1cc2c(-c3c(C(=O)O)[nH]c(-c4cc(F)cc5[nH]ccc45)c3C(C)C)ccnc2[nH]1 [compound 207],Kd,[1],< 20 µM
O=C(O)c1ccc(-c2cccc3[nH]ncc23)[nH]1 [compound 126],Kd,[1],> 100 µM
CC(C)c1c(-c2cc(Cl)cc3[nH]ccc23)[nH]c(C(=O)O)c1-c1c(Cl)ccc2[nH]ccc12 [compound 13],Kd,[1],< 20 µM
CC(C)c1c(-c2cc(F)cc3[nH]ccc23)[nH]c(C(=O)O)c1-c1cc(Oc2nccs2)cc2[nH]ccc12 [compound 201],Kd,[1],< 20 µM
CCc1c(-c2cccc3[nH]ccc23)[nH]c(C(=O)O)c1-c1ccc(OC)cc1 [compound 87],Kd,[1],20 to 50 µM
CC(C)c1c(-c2cc(F)cc3[nH]ccc23)[nH]c(C(=O)O)c1-c1cccc2ncccc12 [compound 268],Kd,[1],< 20 µM
CC(C)c1c(-c2cc(F)cc3[nH]ccc23)[nH]c(C(=O)O)c1-c1ccnc2[nH]c(-c3cccc(Cl)c3)cc12 [compound 253],Kd,[1],< 20 µM
CC(C)c1c(-c2cccc3[nH]ccc23)c(C(=O)O)n2c1-c1cc(F)cc3ccn(c13)S(=O)(=O)C2 [compound 273],Kd,[1],< 20 µM
CCOC(=O)c1[nH]c(-c2cccc3[nH]ncc23)c(CC)c1-c1ccc(OC)cc1Cl [compound 163],Kd,[1],> 100 µM
Cc1cc(-c2cccc3c2ccn3C)[nH]c1C(=O)O [compound 117],Kd,[1],> 100 µM
Cc1c(-c2cccc3[nH]ccc23)[nH]c(C(=O)O)c1-c1ccccc1Cl [compound 93],Kd,[1],50 to 100 µM
CC(C)c1c(-c2cc(F)cc3[nH]ccc23)[nH]c(C(=O)O)c1-c1cccc2c1ccn2CCS(N)(=O)=O [compound 266],Kd,[1],< 20 µM
CC(C)c1c(-c2cc(F)cc3[nH]ccc23)[nH]c(C(=O)O)c1-c1ccc2c3c1ccn3CCO2 [compound 213],Kd,[1],< 20 µM
CC(C)c1c(-c2cc(F)cc3[nH]ccc23)[nH]c(C(=O)O)c1-c1c(Cl)cnc2[nH]ccc12 [compound 245],Kd,[1],< 20 µM
O=C(O)c1cc(-c2ccccc2)c(-c2cccc3[nH]ccc23)[nH]1 [compound 118],Kd,[1],> 100 µM
CCc1c(-c2cccc3[nH]ccc23)[nH]c(C(=O)O)c1-c1cc(N)ccc1Cl [compound 80],Kd,[1],20 to 50 µM
